Experimental data reported in ChEMBL document CHEMBL5120892, “Identification and Characterization of Natural and Semisynthetic Quinones as Aurora Kinase Inhibitors” (J Nat Prod, 2022).
Calls of active or inactive are those of the source. The calls are words filed in the database; no cut-off is given here.

Tests used:
MCF7 = assay: Antiproliferative activity against human MCF7 cells measured after 72 hrs by SRB assay; assay type: functional
MOLM-13 = assay: Antiproliferative activity against human MOLM-13 cells measured after 72 hrs by SRB assay; assay type: functional
A549 [1] = assay: Induction of abnormal mitosis in human A549 cells assessed as increase in abrogated mitotic cells at 3 to 6 uM measured after 24 hrs by DAPI staining based immunofluorescence assay; assay type: functional, cell-based; settings: dose 3-6 µM
K562 = assay: Antiproliferative activity against human K562 cells measured after 72 hrs by SRB assay; assay type: functional
[2] = biological target: T1, Aurora kinase A (Homo sapiens) (UniProt O14965); assay: Binding affinity to Aurora A (unknown origin) expressed in Escherichia coli Rosetta 2(DE3) at 1 mM by STD NMR analysis
T1 sequence (whole entry): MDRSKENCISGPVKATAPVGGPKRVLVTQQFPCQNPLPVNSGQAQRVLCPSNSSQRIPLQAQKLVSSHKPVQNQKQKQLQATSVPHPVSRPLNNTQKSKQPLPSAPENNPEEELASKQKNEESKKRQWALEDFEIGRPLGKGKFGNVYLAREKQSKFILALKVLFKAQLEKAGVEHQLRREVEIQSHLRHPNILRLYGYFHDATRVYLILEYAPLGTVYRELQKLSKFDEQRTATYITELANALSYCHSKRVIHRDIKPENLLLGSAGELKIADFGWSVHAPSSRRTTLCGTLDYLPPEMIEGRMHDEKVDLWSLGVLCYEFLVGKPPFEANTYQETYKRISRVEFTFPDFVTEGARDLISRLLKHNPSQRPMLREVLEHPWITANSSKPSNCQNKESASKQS

CAL-51 = assay: Antiproliferative activity against human CAL-51 cells measured after 72 hrs by SRB assay; assay type: functional
A549 [3] = assay: Induction of abnormal mitosis in human A549 cells assessed as formation of aberrant spindle assembly at 3 to 6 uM measured after 24 hrs by DAPI staining based immunofluorescence assay; assay type: functional, cell-based; settings: dose 3-6 µM
HCT-116 [4] = assay: Induction of apoptosis in human HCT-116 cells assessed as early apoptotic cells at 5 uM measured after 24 hrs by Annexin V-FITC/propidium iodide staining based flow cytometry (reference value: 2.92%); assay type: functional
Homo sapiens [5] = species on record: Homo sapiens; assay: Selectivity ratio of IC50 for inhibition of Aurora B (unknown origin) to IC50 for inhibition of Aurora A (unknown origin)
BT-549 = assay: Antiproliferative activity against human BT-549 cells measured after 72 hrs by SRB assay; assay type: functional
HCC1954 = assay: Antiproliferative activity against human HCC1954 cells measured after 72 hrs by SRB assay; assay type: functional
HCT-116 [6] = assay: Induction of apoptosis in human HCT-116 cells assessed as increase in cleaved PARP expression at 1.25 to 5 uM measured after 24 hrs by Western blot analysis; assay type: functional, cell-based; settings: dose 1.25-5 µM
HCT-116 [7] = assay: Induction of apoptosis in human HCT-116 cells assessed as early apoptotic cells at 2.5 uM measured after 24 hrs by Annexin V-FITC/propidium iodide staining based flow cytometry (reference value: 2.92%); assay type: functional
Aurora kinase A [8] = biological target: T2, Aurora kinase A (Homo sapiens, UniProt O14965); assay: Inhibition of Aurora A (unknown origin)
T2 sequence (O14965 whole entry): T1 sequence (whole entry)

A549 [9] = assay: Induction of abnormal mitosis in human A549 cells assessed as formation of misaligned chromosome at 3 to 6 uM measured after 24 hrs by DAPI staining based immunofluorescence assay; assay type: functional, cell-based; settings: dose 3-6 µM
MV4-11 = assay: Antiproliferative activity against human MV4-11 cells measured after 72 hrs by SRB assay; assay type: functional
HCT-116 [10] = assay: Induction of apoptosis in human HCT-116 cells assessed as late apoptotic cells at 2.5 uM measured after 24 hrs by Annexin V-FITC/propidium iodide staining based flow cytometry (reference value: 0.02%); assay type: functional
HCT-116 [11] = assay: Antiproliferative activity against human HCT-116 cells measured after 72 hrs by SRB assay; assay type: functional
HCT-116 [12] = assay: Induction of apoptosis in human HCT-116 cells assessed as late apoptotic cells at 5 uM measured after 24 hrs by Annexin V-FITC/propidium iodide staining based flow cytometry (reference value: 0.02%); assay type: functional
A549 [13] = assay: Induction of abnormal mitosis in human A549 cells assessed as formation of single spindle pole at 3 to 6 uM measured after 24 hrs by CDK5Rap2 staining based immunofluorescence assay; assay type: functional, cell-based; settings: dose 3-6 µM
Aurora kinase B [14] = biological target: T3, Aurora kinase B (Homo sapiens, UniProt Q96GD4); assay: Inhibition of Aurora B (unknown origin)
[15] = biological target: T1, Aurora kinase A (Homo sapiens); assay: Inhibition of Aurora A (122 to 403 residues) (unknown origin) expressed in Escherichia coli Rosetta 2(DE3) assessed as reduction in TACC3 phosphorylation at Ser 558 residue at 25 uM using TACC3 (519 to 838 residues) as substrate measured after 30 mins by Western blot analysis
Aurora kinase A [16] = biological target: T2, Aurora kinase A; assay: Inhibition of Aurora A (122 to 403 residues) (unknown origin) expressed in Escherichia coli Rosetta 2(DE3) assessed as reduction in TACC3 phosphorylation at Ser 558 residue using TACC3 (519 to 838 residues) as substrate measured after 30 mins by Western blot analysis
Aurora kinase B [17] = biological target: T3, Aurora kinase B; assay: Inhibition of Aurora B in human HCT-116 cells using histone H3 as substrate measured after 2 hrs by Western blot analysis; assay type: cell-based
Homo sapiens [18] = species on record: Homo sapiens; assay: Selectivity ratio of IC50 for inhibition of Aurora B (unknown origin) to IC50 for inhibition of Aurora A (unknown origin) expressed in Escherichia coli Rosetta 2(DE3)
[19] = biological target: T1, Aurora kinase A (Homo sapiens); assay: Inhibition of Aurora A in human HCT-116 cells using TACC3 as substrate measured after 2 hrs by Western blot analysis; assay type: cell-based; settings: dose 1.56-50 µM, DDE = dose-dependent effect

T3 sequence (Q96GD4 whole entry, the tested form may be a part): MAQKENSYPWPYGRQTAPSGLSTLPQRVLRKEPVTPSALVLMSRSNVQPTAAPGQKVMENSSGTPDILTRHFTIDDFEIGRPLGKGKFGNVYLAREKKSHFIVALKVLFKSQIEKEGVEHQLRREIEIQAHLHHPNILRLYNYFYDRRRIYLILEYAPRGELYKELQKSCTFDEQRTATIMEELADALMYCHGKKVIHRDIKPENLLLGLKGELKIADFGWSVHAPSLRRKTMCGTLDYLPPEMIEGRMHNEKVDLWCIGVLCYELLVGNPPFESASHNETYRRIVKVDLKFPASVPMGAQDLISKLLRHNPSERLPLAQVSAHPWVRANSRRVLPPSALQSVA

Row | SMILES | GI50 (MCF7) [µM] | GI50 (MOLM-13) [µM] | GI50 (K562) [µM] | GI50 (CAL-51) [µM] | Ratio IC50 (Homo sapiens [5]) | GI50 (BT-549) [µM] | GI50 (HCC1954) [µM] | IC50 (Aurora kinase A [8]) [µM] | GI50 (MV4-11) [µM] | GI50 (HCT-116 [11]) [µM] | IC50 (Aurora kinase B [14]) [µM] | inhibition [15] | also measured
1 | O=C1c2ccccc2C(=O)c2c(O)c(CCl)cc(O)c21 | 0.59 | 3.7 | 2.8 | 0.15 | 3.42 | 0.4 | 0.61 | 0.12 | 6.3 | 0.22 | 0.41 |  | Activity (A549 [1]): Active; Activity [2]: Active; Activity (A549 [3]): Active; Activity (HCT-116 [4]): 17.6%; Activity (HCT-116 [6]): Active; Activity (HCT-116 [7]): 11.27%; Activity (A549 [9]): Active; Activity (HCT-116 [10]): 8.31%; Activity (HCT-116 [12]): 53.93%; Activity (A549 [13]): Active
2 | COC(=O)/C=C(/CC1=C(CCC(=O)CC2(C)OCCO2)C(=O)c2ccccc2C1=O)OC | 28.3 | 16.8 | 9.7 | 16.3 |  | 24 | 19.1 |  | 43.1 | 21.5 |  |  | 
3 | O=C1C=C(Cl)C(=O)c2c(O)cccc21 | 15.6 | 1.7 | 3.2 | 12.7 | 12 | 9.3 | 0.99 | 0.15 | 0.18 | 4.1 | 1.8 | Active | 
4 | CC1=C(Br)C(=O)c2ccccc2C1=O | 19.1 | < 0.01 | 3.4 | 1.5 | 10.7 | 4.9 | 1.4 | 0.09 | 3.3 | 3.4 | 0.96 | Active | 
5 | CC1=CC(=O)c2c(O)cc(C)c(C(=O)C(Cl)Cl)c2C1=O | 25.8 | 3.7 | 3.7 | 1.9 |  | 8.5 | 1.6 |  | 0.86 | 4.3 |  |  | 
6 | O=C1C=CC(=O)c2c(O)ccc(O)c21 [NAPHTHAZALIN] | 0.43 | 0.28 | 1.7 | 0.56 |  | 0.43 | 0.49 |  | 0.19 | 0.16 | 0.35 | Active | IC50 (Aurora kinase A [16]): 0.09 µM; inhibition (Aurora kinase B [17]): Active; Ratio IC50 (Homo sapiens [18]): 3.89; Activity (A549 [1]): Active; inhibition [19]: Dde; Activity [2]: Active; Activity (A549 [3]): Active; Activity (HCT-116 [4]): 6.36%; Activity (HCT-116 [6]): Active; Activity (HCT-116 [7]): 6.85%; Activity (A549 [9]): Active; Activity (HCT-116 [10]): 3.78%; Activity (HCT-116 [12]): 21.56%; Activity (A549 [13]): Active
7 | CC=CCC1=C(O)C(=O)c2ccccc2C1=O | > 100 | > 100 | > 100 | 54.1 |  | 47 | > 100 |  | 79.1 | 41.5 |  |  | 
8 | CC1(C)CCC2=C(O1)c1ccccc1C(=O)C2=O [LAPACHONE] | 12.2 | 34.5 | 41 | 8.3 |  | 11.4 | 31.8 |  | 70.1 | 12.9 |  |  | 
9 | CC1=CC(=O)c2cccc(O)c2C1=O | 1.4 | 4.1 | 1.3 | 2.5 |  | 2.7 | 0.34 |  | 26.5 | 0.46 |  |  | 
10 | COc1ccc2c(c1)C(=O)C=CC2=O | 28.9 | 4.1 | 2.9 | 2.8 |  | 34 | 2.2 |  | 4.3 | 8.3 |  |  | 
11 | O=C1C=CC(=O)c2c(O)cccc21 [JUGLONE] | 32.6 | 21.9 | > 100 | > 100 | 12.4 | > 100 | 6.44 | 0.05 | 0.06 | 4.2 | 0.62 | Active | 
